# Reference: PubChem BioAssay AID788 (SRMLSC, 2007)
# The source made the active and inactive calls. No rule for the calls is given here.
# What was measured:
# [1] = test system: S. cerevisiae vps1Δ apl2Δ growth inhibition, dose response; assay: growth inhibition of vps1Δ apl2Δ yeast, dose response, post-Golgi transport modulator project, S. cerevisiae, background strain comparison (AID 788)
# [2] = test system: S. cerevisiae wild-type background strain growth inhibition; assay: as above; settings: S. cerevisiae vps1Δ apl2Δ growth inhibition, dose response; measured here: wild-type background strain growth
Compound,IC50 [1],IC50 [2]
CCC(C)c1ccc(OCCCCN2CCOCC2)cc1 (stereo not given),4.71 µM,> 10 µM
CCN(CC)CCCN(Cc1cc2cc3c(cc2[nH]c1=O)OCCO3)C(=O)Nc1ccc(F)cc1,> 10 µM (inactive),> 10 µM
Cc1ccc(S(=O)(=O)NC(CC(C)C)C(=O)Oc2ccc3c4c(c(=O)oc3c2)CCC4)cc1 (stereo not given),> 10 µM (inactive),> 10 µM
O=C1CN(C(=O)CSc2nnc(-c3ccccc3)n2Cc2ccc3c(c2)OCO3)c2ccccc2N1,> 10 µM (inactive),> 10 µM
Nc1c(C(=O)OCC2CCCO2)c2nc3ccccc3nc2n1-c1ccc2c(c1)OCCO2 (stereo not given),> 10 µM (inactive),> 10 µM
OC(c1ccc(Cl)cc1Cl)C(Cc1cccnc1)n1cncn1 (stereo not given),> 10 µM (inactive),> 10 µM
C=C(C)C1CC=C(CN2CCC(C(=O)OCC)CC2)CC1 (stereo not given),13.5 µM,> 10 µM
Cc1nc(NC(=O)c2ccccc2)sc1-c1csc(NCc2ccccc2)n1,3.54 µM,> 10 µM
Cc1cccc(CS(=O)(=O)Cc2ccc(C(=O)NCCCN3CCCC3)o2)c1,> 10 µM (inactive),> 10 µM
COc1ccc(NC(=O)N(C2CCCCC2)C(C)c2cccnc2)c(OC)c1 (stereo not given),9.51 µM,16.7 µM
Cn1nnc2cc(C(=O)Nc3cccnc3)ccc21,> 10 µM (inactive),> 10 µM
Cc1ccnc(N2C(=O)c3cccc4c([N+](=O)[O-])ccc(c34)C2=O)c1,5.37 µM (inactive),4.22 µM
Cc1cccc(OCC(=O)O/N=C(\N)Cc2ccc(Cl)cc2)c1,> 10 µM (inactive),10.4 µM
Cc1cc(O)c(/C=N/Nc2ccc(Cl)cc2)c(=O)o1,3.33 µM,4.69 µM
O=C(Nc1nnc(-c2ccccc2)o1)c1ccc(Cl)cc1,2.46 µM (inactive),0.65 µM
Cc1cc(C(C)(C)C)ccc1OCCN1CCCC1,17.1 µM,> 10 µM
Cc1cc(OCC(F)(F)C(F)(F)C(F)(F)C(F)(F)C(F)(F)C(F)F)nc(N)n1,> 10 µM (inactive),> 10 µM
CC(NC(=O)CSc1nc2c(cc1C#N)CN(C)CC2)c1ccccc1 (stereo not given),> 10 µM (inactive),> 10 µM
COc1ccccc1N1CCN(Cc2ccccc2F)CC1,> 10 µM (inactive),> 10 µM
CCn1c(=O)[nH]c2cc(C(=O)N3CCN(c4ccccc4)CC3)ccc2c1=O,> 10 µM (inactive),> 10 µM

Compound,IC50 [1],IC50 [2]
CCN(CC)c1nc2cc(OC)ccc2cc1C#N,> 10 µM (inactive),> 10 µM
CCCCOc1ccc(-c2ncc(C(=O)O)c(C)n2)cc1,> 10 µM (inactive),> 10 µM
C/C(=N\N=C(/N)SC1CC(=O)N(c2ccc(Cl)c(Cl)c2)C1=O)c1cccs1 (stereo not given),5.05 µM,5.98 µM
N#Cc1nc(COc2ccc(-c3ccccc3)cc2)oc1NCCCN1CCOCC1,13.8 µM,15.4 µM
O=C(Nc1nc(-c2ccccn2)cs1)c1ncc(Cl)c(Cl)c1Cl,4.41 µM,13.3 µM
Cc1ccc(C(C)C)c(OCCCN2CC(C)OC(C)C2)c1 (stereo not given),9.78 µM,> 10 µM
COc1ccc2c(c1)C(C)=CC(C)(C)N2C(=O)CSc1nnc(-c2ccc(C)cc2)o1,> 10 µM (inactive),> 10 µM
CCN(CC)C(=O)C1CCN(Cc2ccc(Br)cc2)CC1,> 10 µM (inactive),> 10 µM
CCOC(=O)C(C)Oc1ccc2c(C)cc(=O)oc2c1C(C)=O (stereo not given),> 10 µM (inactive),> 10 µM
Cc1ccc2nc(C)cc(OCC(=O)O)c2c1,> 10 µM (inactive),> 10 µM
CCOC(=O)C1CCN(Cc2cnc(Oc3ccc(Cl)cc3C)s2)CC1,26 µM,> 10 µM
COc1ccc(C(=O)c2c(C(F)(F)F)oc3c2C(=O)c2ccccc2C3=O)cc1,22.7 µM (inactive),2.32 µM
Cc1cccc2cc(C#N)c(NCCCn3ccnc3)nc12,> 10 µM (inactive),> 10 µM
CC(=O)c1cnc2nc(C)nn2c1C,> 10 µM (inactive),> 10 µM
c1ccc(-c2ccc(-c3cnc4n3CCCCC4)cc2)cc1,> 10 µM (inactive),> 10 µM
N=c1c2c(-c3ccccc3)c(-c3ccccc3)n(Cc3ccco3)c2ncn1Cc1ccco1,16 µM,21.5 µM
Cc1cc(C)nc(NC(=O)CSc2nn(C)c(=S)s2)n1,> 10 µM (inactive),> 10 µM
O=C(COc1ccc(Cl)cc1Cl)N1CCN(C/C=C/c2ccccc2)CC1,1.46 µM,7.14 µM
Cc1ccc(-c2csc3nnc(SCC(=O)Nc4cccc(C)n4)n23)cc1,> 10 µM (inactive),> 10 µM
O=S(=O)(c1ccc(Cl)cc1)N1CCN(C2CCN(Cc3ccccc3)CC2)CC1,5.15 µM,> 10 µM

Compound,IC50 [1],IC50 [2]
Cc1cc(C)n2nc(C(=O)NCc3ccccc3)cc2n1,> 10 µM (inactive),> 10 µM
Fc1ccc(Cn2nnc(-c3ccc(CN4CCOCC4)cc3)n2)cc1,5.15 µM,> 10 µM
Cc1ccc(NS(=O)(=O)c2cc(C(=O)N3CCOCC3)ccc2C)cc1,> 10 µM (inactive),> 10 µM
COc1cccc(C(=O)N2CCN(C3CCC(c4ccccc4)CC3)CC2)c1OC (stereo not given),5.37 µM,23.9 µM
Cc1ccc(C(=O)NCc2occc2C(=O)O)o1,> 10 µM (inactive),> 10 µM
COc1ccc(-c2nnc(CSc3nc4ccccc4c(=O)n3C)o2)cc1OC,> 10 µM (inactive),> 10 µM
COc1cc(CN2CCN(c3ccc(C)cc3)CC2)cc([N+](=O)[O-])c1O,> 10 µM (inactive),> 10 µM
CCOC(=O)c1c(-n2c(C)cc(C=C3C(=O)NC(=S)NC3=O)c2C)sc2c1CCCC2,> 10 µM (inactive),11.5 µM
O=c1c2cccc3c2c(nn1CN1CCOCC1)-c1ccccc1-3,> 10 µM (inactive),> 10 µM
Cc1c(C)c2cc(Cl)c(O)c(CN3CCN(C)CC3)c2oc1=O,> 10 µM (inactive),> 10 µM
Cc1nc(NC(=O)c2ccccc2)sc1-c1csc(Nc2ccc(F)cc2)n1,> 10 µM (inactive),> 10 µM
Cc1ccc(C2N(c3ccc(Cl)c(Cl)c3)C(=O)C3CCCN32)o1 (stereo not given),> 10 µM (inactive),> 10 µM
CN1/C(=C/C2CC(=O)NC2=O)C(C)(C)c2ccccc21 (stereo not given),> 10 µM (inactive),> 10 µM
O=S(=O)(c1cnccc1N1CCN(/N=C/c2ccc(Br)cc2)CC1)N1CCCCC1,> 10 µM (inactive),> 10 µM
NC(=O)c1ccsc1NC(=O)c1nc(-c2ccccc2)n(-c2ccccc2)n1,> 10 µM (inactive),> 10 µM
c1ccc(Nc2cc(-c3ccccc3)nc3ncnn23)cc1,6.29 µM,> 10 µM
O=C(N/N=C/c1ccc([N+](=O)[O-])o1)c1cc(-c2cccc(Br)c2)nc2ccccc12,1.02 µM,4.65 µM
CCOC(=O)c1c(CN2CCCCC2C)oc2ccc(OC)cc12 (stereo not given),> 10 µM (inactive),> 10 µM
Cn1c(=O)cc(NCc2ccccc2)[nH]c1=O,> 10 µM (inactive),> 10 µM
CS(=O)(=O)N1CCC(C(=O)NCCN2CCN(Cc3ccccc3)CC2)CC1,> 10 µM (inactive),> 10 µM
